What was measured:
[1] = test system: CD34+CD38− LSCs and CD34+CD38+ AML non-stem cells; experiment: Activated caspase-3 flow cytometry of BM cells undergoing apoptosis; parameters: species or system NOD/SCID/IL2rg^null mice transplanted with human AML; settings: in vivo administration, recipient BM
Description: Myelocytes were recovered from two tibiae and one femur from each analyzed recipient; MNCs (mononucleocytes) were counted manually and using an automated blood cell analyzer (Celltac α, Nihon Kohden, Japan), and the absolute number of BMMNCs derived from each recipient was estimated. The absolute number of human CD34^+ cells (derived from two tibiae and one femur) per mouse was determined by multiplying the thus-obtained total BMMNC count by 7AAD^−hCD45^+hCD34^+ BM cells (%). BrdU uptake was measured using a BrdU flow kit (BD Pharmingen, Calif.). To quantify cells in the G0 phase of the cell cycle, the cells were stained with Hoechst 33342 and Pyronin Y, and then surface-stained using standard procedures. […]

[2] = test system: AML cells in the endosteum; experiment: HE and TUNEL staining of bone sections; assay type: in vivo, NOD/SCID/IL2rg^null mice transplanted with human AML; settings: bone sections of recipients
Description: For experiments involving administration of G-CSF alone, administration of Ara-C alone, and administration of G-CSF followed by administration of Ara-C, recipients of primary transplantation of human AML were used 16 to 24 weeks after transplantation. For each experiment for comparison of various dose groups, a pair of recipients was selected from among litter mates, with the same primary AML sample transplanted in the same amount on the same day so as to suppress variation among the litter mates and variation due to differences in transplantation level. […]
After administration of Ara-C alone or after administration of Ara-C following pre-administration of G-CSF, the BM of the recipients was evaluated in terms of 1) a flow cytometry fraction of activated caspase-3 positive LSCs undergoing apoptosis, 2) histological localization of cells undergoing apoptosis in the recipient BM as determined by TUNEL staining, 3) percentage and absolute number of remaining viable hCD34^+ AML cells, and 4) frequency and AML-causing potential of remaining LSCs in alternative measurements of the likelihood of AML recurrence via limited dilution and sequential transplantation of sorted hCD34^+ cells. […]

[3] = test system: hCD34+ cells, including LSCs; experiment: Percentage and absolute number of remaining viable hCD45+CD34+ cells in recipient BM; assay type: in vivo, NOD/SCID/IL2rg^null mice transplanted with human AML; settings: mean +/− SEM; for #CD45+CD34+/mouse (×10^6): two tibiae and one femur; for % CD45+CD34+: viable cells in BM
Description: (§1) For experiments involving administration of G-CSF alone, administration of Ara-C alone, and administration of G-CSF followed by administration of Ara-C, recipients of primary transplantation of human AML were used 16 to 24 weeks after transplantation. For each experiment for comparison of various dose groups, a pair of recipients was selected from among litter mates, with the same primary AML sample transplanted in the same amount on the same day so as to suppress variation among the litter mates and variation due to differences in transplantation level. Performed were administration of recombinant human G-CSF (Wako, Japan): 300 μg/kg s.c. qd×5 days; administration of Ara-C (Biogenesis, Poole, UK): 1 g/kg i.p. qd×2 days; administration of G-CSF+Ara-C: G-CSF 300 μg/kg s.c. qd×5 days, and concurrent administration of Ara-C 1 g/kg i.p. qd×2 days on days 4 and 5 of administration. The recipients were killed 16 hours after final injection. BrdU (1.5 mg/mouse; BD Biosciences, Calif.) was injected by i.p. to recipients under a cell cycle analysis by BrdU uptake immediately after the final injection (s.c. stands for subcutaneous administration, and i.p. for intraperitoneal administration).
(§2) For evaluation of human AML transplantation, blood was drawn from the orbital sinus of each recipient every 3 weeks starting at week 6 after transplantation. Myelocytes were recovered from two tibiae and one femur from each analyzed recipient; MNCs (mononucleocytes) were counted manually and using an automated blood cell analyzer (Celltac α, Nihon Kohden, Japan), and the absolute number of BMMNCs derived from each recipient was estimated. The absolute number of human CD34^+ cells (derived from two tibiae and one femur) per mouse was determined by multiplying the thus-obtained total BMMNC count by 7AAD^−hCD45^+hCD34^+ BM cells (%). BrdU uptake was measured using a BrdU flow kit (BD Pharmingen, Calif.). To quantify cells in the G0 phase of the cell cycle, the cells were stained with Hoechst 33342 and Pyronin Y, and then surface-stained using standard procedures. Quantitation of cells undergoing apoptosis was performed by staining activated caspase-3 in the cells using a rabbit anti-activated caspase-3 monoclonal antibody (BD Pharmingen, Calif.). Surface labeling was achieved using mouse anti-human CD45, anti-CD34 and anti-CD38 monoclonal antibodies (BD Immunocytometry). Analyses were performed using FACSAria and FACSCanto II (Becton Dickinson, Calif.).
To evaluate the frequency and function of LSCs remaining after each dosing, limited dilution and secondary transplantation of living hCD34^+ BM cells, including leukemia stem cells sorted from recipients given administration of Ara-C alone or G-CSF+Ara-C, were performed. The absolute number of hCD34^+ cells was obtained from the number of mononucleocytes in two tibiae and one femur derived from each recipient, and viable hCD34^+ cell (%) was obtained by flow cytometry.
The results are shown as mean value +/− SEM; differences were examined by two-tailed t-test.

hCD34+CD38− LSCs = experiment: Flow cytometric cell cycle analysis of LSCs in BM of recipients of primary transplantation of human AML; assay type: in vivo, NOD/SCID/IL2rg^null mice transplanted with human AML
Description: (§3) Newborn (within 2 days of birth) NOD/SCID/IL2rg^null recipient received 150 cGy of total body irradiation using a ^137Cs-source irradiator, followed by intravenous injection of AML cells within two hours. For primary transplantation, 10^3 to 5×10^4 sorted BM cells per recipient from a 7AAD^− lineage (hCD3/hCD4/hCD8) ^−hCD34^+hCD38^− AML patient were used, as described in F. Ishikawa et al., Nat. Biotechnol. 25, 1315 (2007). For secondary transplantation after administration of Ara-C (cytarabine) alone or after administration of G-CSF followed by administration of Ara-C, 2×10^2, 2×10^3, 2×10^4, or 2×10^5 sorted 7AAD^−hCD45^+hCD34^+ BM cells per recipient were used. For fluorescence-activated cell sorting, BMMNC cells from AML patients were labeled with fluorescent dye-conjugated mouse anti-hCD3, anti-hCD4, anti-hCD8, anti-hCD34 and anti-hCD38 monoclonal antibodies (BD Immunocytometry), and BMMNC cells from recipients were labeled with mouse anti-hCD45, anti-hCD34 and anti-hCD38 monoclonal antibodies (BD Immunocytometry); the cells were sorted using FACSAria (Beckton Dickinson, Calif.). Doublets were eliminated via analysis of FSC/SSC-height and FSC/SSC-width. After the sorting, the purities of hCD34^+hCD38^− cells and hCD34^+ cells exceeded 98%.
For experiments involving administration of G-CSF alone, administration of Ara-C alone, and administration of G-CSF followed by administration of Ara-C, recipients of primary transplantation of human AML were used 16 to 24 weeks after transplantation. […]
as §2, with “Surface labeling was achieved using mouse anti-human CD45, anti-CD34 and anti-CD38 monoclonal antibodies (BD Immunocytometry). Analyses were performed using FACSAria and FACSCanto II (Becton Dickinson, Calif.).” left out

LSCs = experiment: Limited dilution secondary transplantation of sorted hCD34+ BM cells (LSC frequency, survival of secondary recipients); assay type: in vivo, NOD/SCID/IL2rg^null mice transplanted with human AML; settings: secondary recipients of hCD34+ cells from treated mice
Description: as §3, with “After the sorting, the purities of hCD34^+hCD38^− cells and hCD34^+ cells exceeded 98%.” left out
Differences in the ratios/absolute numbers of cells (%), activated caspase-negative cells (%), and BM CD34^+ cells in the cell cycle were analyzed using two-tailed t-test (GraphPad Prism, GraphPad, San Diego, Calif.). […]

[4] = test system: AML cells in the endosteal region; experiment: Histological analysis of bone sections (BrdU uptake, Ki67 immunofluorescence) of recipients of human AML; assay type: in vivo, NOD/SCID/IL2rg^null mice transplanted with human AML
Description: as §1
Paraformaldehyde-fixed, decalcified, paraffin-embedded sections were prepared from femurs of the recipients primarily transplanted with AML. […]

[5] = post-Ara-C, intraperitoneal, n=15
[6] = after administration of G-CSF in vivo, all cases examined

Question: Which “Apoptosis of CD34+CD38+ AML non-stem cells (activated caspase-3)” value [1] does the source give for `Nc1ccn([C@@H]2O[C@H](CO)[C@@H](O)[C@@H]2O)c(=O)n1` [Ara-C, cytarabine] here?
Answer: underwent apoptosis

Question: And the “Apoptosis of CD34+CD38− LSCs (activated caspase-3)” value [1]?
Answer: the majority of CD34^+CD38^− LSCs did not

Question: What about the “Cell death in the endosteum (TUNEL and HE staining)” value [2] of the same molecule?
Answer: TUNEL-negative AML cells remaining in the endosteum

Question: And the “#CD45+CD34+/mouse (×10^6)” value ([3]; Case ID 1)?
Answer: 1.4 +/− 0.3 ×10^6

Question: What about the “% CD45+CD34+” value ([3]; Case ID 1) of the same molecule?
Answer: 29.7 +/− 1.6%

Question: What about the “#CD45+CD34+/mouse (×10^6)” value ([3]; Case ID 2) of the same molecule?
Answer: 4.9 +/− 0.7 ×10^6

Question: What about the “% CD45+CD34+” value ([3]; Case ID 2) of the same molecule?
Answer: 84.9 +/− 2.5%

Question: And the “#CD45+CD34+/mouse (×10^6)” value ([3]; Case ID 3)?
Answer: 2.3 +/− 0.1 ×10^6

Question: What about the “% CD45+CD34+” value ([3]; Case ID 3) of the same molecule?
Answer: 80.2 +/− 2.3%

Question: What about the “#CD45+CD34+/mouse (×10^6)” value ([3]; Case ID 4) of the same molecule?
Answer: 3.6 +/− 0.8 ×10^6

Question: What about the “% CD45+CD34+” value ([3]; Case ID 4) of the same molecule?
Answer: 68.0 +/− 2.8%

Question: And the “#CD45+CD34+/mouse (×10^6)” value ([3]; Case ID 5)?
Answer: 2.1 +/− 0.2 ×10^6

Question: And the “% CD45+CD34+” value ([3]; Case ID 5)?
Answer: 61.5 +/− 7.5%

Question: What about the “#CD45+CD34+/mouse (×10^6)” value ([3]; Case ID 6) of the same molecule?
Answer: 5.3 +/− 1.4 ×10^6

Question: And the “% CD45+CD34+” value ([3]; Case ID 6)?
Answer: 49.0 +/− 9.2%

Question: What about the “#CD45+CD34+/mouse (×10^6)” value ([3]; Case ID 7) of the same molecule?
Answer: 0.7 +/− 0.1 ×10^6

Question: What about the “% CD45+CD34+” value ([3]; Case ID 7) of the same molecule?
Answer: 16.5 +/− 1.7%

Question: And the “% G0/G1 of CD34+CD38− AML cells” value (hCD34+CD38− LSCs; [5])?
Answer: 91.7+/−2.3%

Question: What about the “% S of CD34+CD38− AML cells” value (hCD34+CD38− LSCs; [5]) of the same molecule?
Answer: 0.1+/−0.1%

Question: What about the “Secondary mouse recipients surviving beyond 19 weeks after transplantation” value (LSCs) of the same molecule?
Answer: None

B1: G-CSF: recombinant human G-CSF (Wako, Japan), granulocyte colony stimulation factor (protein)
chain: TPLGPASSLPQSFLLKCLEQVRKIQGDGAALQEKLVSECATYKLCHPEELVLLGHSLGIPWAPLSSCPSQALQLAGCLSQLHSGLFLYQGLLQALEGISPELGPTLDTLQLDVADFATTIWQQMEELGMAPALQPTQGAMPAFASAFQRRAGGVLVASHLQSFLEVSYRVLRHLAQP
Question: How did the “Expression of Ki67 in AML cells in BM center and endosteal region” value ([4]; after 5 days of administration of G-CSF) turn out when B1 was run?
Answer: expression of Ki67 was induced

Question: What about the “BrdU uptake of AML cells in the endosteal region” value ([4]; after administration of G-CSF) of the same molecule?
Answer: increase in BrdU uptake

Question: What about the “LSCs in the G0 phase fraction” value (hCD34+CD38− LSCs; [6]) of the same molecule?
Answer: decreased significantly

Question: And the “LSCs in the S phase and G2/M phase” value (hCD34+CD38− LSCs; [6])?
Answer: increased

— patent publication US20120121535A1, “AGENT FOR PREVENTING RECURRENCE OF LEUKEMIA” (RIKEN, priority 2009, published 2012)
